Measurements: US9211296B2, “Therapeutic compounds for blocking DNA synthesis of POX viruses” (priority 2007, dated 2015)
Entries after “also recorded” stand apart in the source; their conditions may differ. Read-outs that look alike come from different tables or passages of the source.

Tests used:
[1] = biological target: vaccinia virus DNA synthesis (viral DNA polymerase and its associated factors) (Vaccinia virus, UniProt P06856); type: biochemical
vaccinia virus WR [2] = test: microbe, parasite or virus in culture; type: cell-based; conditions: for EC50: Orthopoxvirus vaccinia
vaccinia virus WR [3] = test: microbe, parasite or virus in culture; type: cell-based; conditions: Orthopoxvirus vaccinia
vaccinia virus WR [4] = type: cell-based
WST-1 cytotoxicity assay = conditions: African green monkey, BS-C-1 cells
BS-C-1 cells = test: WST-1 cytotoxicity assay; conditions: for tox 20 h TC50 / tox 72 h TC50 / tox 120 h TC50: Table 6; for CC50: Table 4
[5] = biological target: vaccinia E9 polymerase (Vaccinia virus (strain Western Reserve) (VACV) (Vaccinia virus (strain WR)), UniProt P06856); type: biochemical
[6] = biological target: triad (A20, D4, E9) (Vaccinia virus (strain Western Reserve) (VACV) (Vaccinia virus (strain WR)), UniProt P06856); type: biochemical
[7] = biological target: vaccinia triad (A20, D4, E9) (Vaccinia virus (strain Western Reserve) (VACV) (Vaccinia virus (strain WR)), UniProt P06856); type: biochemical
vaccinia virus [8] = test: microbe, parasite or virus in culture; type: cell-based; conditions: Orthopoxvirus vaccinia, BSC-1, 1 h, read-out: Inhibition of plaques
BSC-1 cells = conditions: 100 μM
vaccinia virus [9] = type: cell-based
vaccinia virus [10] = test: microbe, parasite or virus in culture; conditions: Orthopoxvirus vaccinia, BSC-1, 16 h, read-out: Plaque IC50
[11] = aCella-TOX GAPDH release cytotoxicity assay (viridicatumtoxin study); conditions: African green monkey, BSC-1 cells
[12] = Solubility in cell growth medium by light scattering; conditions: concentrations of the activity assays
Experimental: These 16 compounds were tested for cell protection and cytotoxicity over longer times (48 h and 72 h). […] The solubility of the 16 compounds was verified in cell growth medium over the range of concentrations used in the activity assays.

[13] = read-out: DNA Synthesis Inhibition IC50
[14] = 20 h, read-out: Cell Protection 20 h EC50
[15] = BSC-1, 20 h, read-out: cell prot EC50
[16] = 20 h, read-out: Plaque Reduction 20 h EC50
[17] = BSC-1, 20 h, read-out: plaque red EC50
[18] = read-out: Cytotoxicity 72 h CC50, 72 h
[19] = read-out: Cytotoxicity 120 h CC50, 120 h
[20] = read-out: Cytotoxicity 20 h CC50, 20 h

Row | Structure (SMILES) | IC50 [1, 13] | IC50 ([1]; read-out: DNA synth IC50) | Selectivity Index SI (vaccinia virus WR [2]) | selectivity index (vaccinia virus WR [2]) | EC50 (vaccinia virus WR [2]; [14]) | EC50 (vaccinia virus WR [2]; [15]) | EC50 (vaccinia virus WR [3]; [16]) | EC50 (vaccinia virus WR [3]; [17]) | Effect of dsDNA (vaccinia virus WR [4]) | trapped by dsDNA (vaccinia virus WR [4]) | CC50 at 72 h (WST-1 cytotoxicity assay) | tox 20 h TC50 (BS-C-1 cells; 20 h) | tox 72 h TC50 (BS-C-1 cells; 72 h) | tox 120 h TC50 (BS-C-1 cells; 120 h) | CC50 (BS-C-1 cells; [19]) | CC50 (BS-C-1 cells; [20]) | Solubility in cell growth medium [12] | further results
1 | Cc1c(/N=C/c2cc(Br)cc(Br)c2Br)cccc1C(=O)O [Compound 7] | 26 µM | 26 µM | >2 | >2 | 100 µM | 100 µM | 75 µM | 75 µM | No | no | 38 µM | >200 µM | 38 µM | 20 µM |  |  |  | CC50 at 20 h (WST-1 cytotoxicity assay): > 200 µM; CC50 at 120 h (WST-1 cytotoxicity assay): 20 µM
2 | O=C1CSC(=S)N1/N=C/c1ccc(Cl)c([N+](=O)[O-])c1 [NSC 124808] |  |  |  |  |  |  |  |  |  |  |  |  |  |  |  |  |  | Effect on E9 polymerase activity on the uniform template [5]: not on the uniform template; also recorded: minimal effects; Effect on DNA synthesis by the triad on the distal template [6]: prevented DNA synthesis by the triad on the distal template; also recorded: blocked incorporation on the distal template; Targeted Activity (% Inhibition): Processivity [6]: Processivity (62%); Effect on synthesis of M13 DNA [7]: blocked by increasing concentrations; inhibition at 100 µM (vaccinia virus [8]): 36%; Cell Cytotoxicity (BSC-1 cells): 21%
3 | Nc1ccn(C[C@@H](CO)OCP(=O)(O)O)c(=O)n1 [Cidofovir, reference compound] |  |  | >18.9 |  | 132 µM | 132 µM | 50 µM | 50 µM | No | no |  | >500 µM | >500 µM | 300 µM | 300 µM |  |  | CC50 at 20 h (WST-1 cytotoxicity assay): > 2500 µM; CC50 (BS-C-1 cells; [18]): > 500 µM
4 | CN(C)C1C(O)=C(C(N)=O)C(=O)C2(O)C(O)=C3C(=O)c4c(O)cccc4C(C)(O)C3CC12.CS(=O)(=O)O (stereo not drawn) [NSC 69343, 4-(dimethylamino)-3,6,10,12,12a-pentahydroxy-6-methyl-1,11-dioxo-1,4,4a,5,5a,6,11,12a-octahydrotetracene-2-carboxamide methanesulfonate, reference compound] |  |  |  |  |  |  |  |  |  |  |  |  |  |  |  |  |  | inhibition at 100 µM (vaccinia virus [8]): 40%; Blocking the replication of vaccinia virus in cells (vaccinia virus [9]): effective in blocking the replication of vaccinia virus in cells; Cell Cytotoxicity (BSC-1 cells; methanesulfonate): 17%; IC50 (vaccinia virus [10]): > 200 µM; CC50 [11]: > 200 µM
5 | O=C(Nc1ccccc1C(=O)O)OCC1c2ccccc2-c2ccccc21 [Compound 9] | 26 µM | 26 µM | >1.9 | >1.9 | 104 µM | 104 µM | 75 µM | 75 µM | No | no | 30 to 50 µM | >200 µM | 40 µM | 20 µM | 20 µM | > 200 µM |  | 
6 | Cc1cc(/N=C/c2cc(Cl)cc(Cl)c2O)no1 [Compound 6] | 30 µM | 30 µM | >2.1 | >2.1 | 95 µM | 95 µM | 75 µM | 75 µM | No | no | ~50 µM | >200 µM | 50 µM | 20 µM | 20 µM | > 200 µM |  | 
7 | Cc1cc(OC(=O)c2ccco2)nc(SCc2c(Cl)cccc2Cl)n1 [Compound 8] | 52 µM | 52 µM | >2 | >2 | 100 µM | 100 µM | 75 µM | 75 µM | No | no |  | >100 µM | >100 µM | >100 µM |  |  | just slightly insoluble at the EC50 | CC50 at 20 h (WST-1 cytotoxicity assay): > 200 µM
8 | N=C1S/C(=C/c2ccco2)C(=O)N1c1nccs1 [Compound 12] | 32 µM | 32 µM | >1.2 | >1.2 | 80 µM | 80 µM | 75 µM | 75 µM | No | no | > 50 µM | >100 µM | >100 µM | 50 µM |  | > 100 µM | just slightly insoluble at the EC50 | 
9 | O=C1/C(=C/C2CCCO2)CC/C1=C\C1CCCO1 (stereo not drawn) [Compound 16] | 239 µM | 239 µM | >1 | >1 | 100 µM | 100 µM | 50 µM | 50 µM | No | no |  | >100 µM | >100 µM | 50 µM |  | > 100 µM | just slightly insoluble at the EC50 | 
10 | CCn1c2ccccc2c2ccc(/C=N/n3cnnc3)cc21 [Compound 3] | 131 µM | 131 µM | >4.0 | >4.0 | 50 µM | 50 µM | 50 µM | 50 µM | No | no |  | >200 µM | 36 µM | 3 µM | 3 µM | > 200 µM |  | CC50 (BS-C-1 cells; [18]): 36 µM
11 | O=C(O)Cn1c2ccc(Cl)cc2c2nc3ccccc3nc21 [Compound 13] |  |  |  |  | 100 µM | 100 µM | 50 µM | 50 µM | No | no |  | >100 µM | 13 µM | 30 µM | 30 µM | > 100 µM | just slightly insoluble at the EC50 | CC50 (BS-C-1 cells; [18]): 13 µM
12 | CCS(=O)(=O)N1CCN=C1SCc1ccc(Cl)cc1Cl [Compound 10] | 188 µM | 188 µM |  |  | 90 µM | 90 µM | 25 µM | 25 µM | No | no |  | 166 µM |  |  |  | 166 µM | just slightly insoluble at the EC50 | CC50 at 120 h (WST-1 cytotoxicity assay): 25 µM
